In BigSolDB 2.1:

SMILES | solubility (mole fraction) (in ethanol, 278 K) | solubility (mole fraction) (in ethanol, 283 K) | solubility (mole fraction) (in ethanol, 288 K) | solubility (mole fraction) (in ethanol, 293 K) | solubility (mole fraction) (in ethanol, 298 K) | solubility (mole fraction) (in ethanol, 303.2 K) | solubility (mole fraction) (in ethanol, 308 K) | solubility (mole fraction) (in ethanol, 313 K) | solubility (mole fraction) (in ethanol, 318 K) | solubility (mole fraction) (in ethanol, 323 K) | solubility (mole fraction) (in n-propanol, 278 K) | solubility (mole fraction) (in n-propanol, 283 K) | solubility (mole fraction) (in n-propanol, 288 K) | solubility (mole fraction) (in n-propanol, 293 K) | solubility (mole fraction) (in n-propanol, 298 K) | solubility (mole fraction) (in n-propanol, 303.1 K) | solubility (mole fraction) (in n-propanol, 308.2 K) | solubility (mole fraction) (in n-propanol, 313 K) | solubility (mole fraction) (in n-propanol, 318 K) | solubility (mole fraction) (in n-propanol, 323 K) | also measured
Cc1ccc(S(=O)(=O)[N-]Cl)cc1.[Na+] | 0.02 | 0.0221 | 0.0244 | 0.0268 | 0.0299 | 0.034 | 0.0388 | 0.0441 | 0.0499 | 0.0564 | 0.00503 | 0.00636 | 0.00776 | 0.00932 | 0.0109 | 0.013 | 0.0156 | 0.0191 | 0.0235 | 0.0291 | solubility (mole fraction) (in sec-butanol, 278 K): 0.00101; solubility (mole fraction) (in sec-butanol, 283 K): 0.00135; solubility (mole fraction) (in sec-butanol, 288 K): 0.00201; solubility (mole fraction) (in sec-butanol, 293 K): 0.00322; solubility (mole fraction) (in sec-butanol, 298.4 K): 0.00464; solubility (mole fraction) (in sec-butanol, 303.2 K): 0.00595; solubility (mole fraction) (in sec-butanol, 308 K): 0.00723; solubility (mole fraction) (in sec-butanol, 313 K): 0.00881; solubility (mole fraction) (in sec-butanol, 318 K): 0.0114; solubility (mole fraction) (in sec-butanol, 323 K): 0.0141; solubility (mole fraction) (in water, 278 K): 0.00684; solubility (mole fraction) (in water, 283 K): 0.008; solubility (mole fraction) (in water, 288 K): 0.00955; solubility (mole fraction) (in water, 293 K): 0.0114; solubility (mole fraction) (in water, 298 K): 0.0138; solubility (mole fraction) (in water, 303.1 K): 0.0171; solubility (mole fraction) (in water, 308.2 K): 0.0218; solubility (mole fraction) (in water, 313 K): 0.0284; solubility (mole fraction) (in water, 318 K): 0.037; solubility (mole fraction) (in water, 323 K): 0.0477
O=S(=O)([N-]Cl)c1ccccc1.[Na+] | 0.0164 | 0.0193 | 0.0224 | 0.0264 | 0.031 | 0.0364 | 0.0422 | 0.0486 | 0.0561 | 0.066 | 0.00195 | 0.00348 | 0.00536 | 0.00778 | 0.0106 | 0.0142 | 0.0188 | 0.0245 | 0.0307 | 0.0378 | solubility (mole fraction) (in sec-butanol, 278 K): 0.00185; solubility (mole fraction) (in sec-butanol, 283 K): 0.00228; solubility (mole fraction) (in sec-butanol, 288 K): 0.00287; solubility (mole fraction) (in sec-butanol, 293 K): 0.00383; solubility (mole fraction) (in sec-butanol, 298.4 K): 0.00481; solubility (mole fraction) (in sec-butanol, 303.2 K): 0.00585; solubility (mole fraction) (in sec-butanol, 308 K): 0.00706; solubility (mole fraction) (in sec-butanol, 313 K): 0.0091; solubility (mole fraction) (in sec-butanol, 318 K): 0.0117; solubility (mole fraction) (in sec-butanol, 323 K): 0.015; solubility (mole fraction) (in water, 278 K): 0.0074; solubility (mole fraction) (in water, 283 K): 0.00829; solubility (mole fraction) (in water, 288 K): 0.0102; solubility (mole fraction) (in water, 293 K): 0.0127; solubility (mole fraction) (in water, 298 K): 0.0158; solubility (mole fraction) (in water, 303.1 K): 0.0192; solubility (mole fraction) (in water, 308.2 K): 0.0241; solubility (mole fraction) (in water, 313 K): 0.0316; solubility (mole fraction) (in water, 318 K): 0.0421; solubility (mole fraction) (in water, 323 K): 0.0554
